From US20040126882A1, “Regulatable, catalytically active nucleic acids” (priority 2000, published 2004)

How the values were obtained:
3MeX2P6 = assay: Effector specificity of 3MeX2P6 in vitro and in vivo
Experimental: In vitro splicing assays. The assays were preformed by heating the RNA (500 nM) in H2O to 70° C. for 3 min then transferring to ice for 1 min. […] GTP (50 μM) was added to the remaining reaction (5 μl total volume) to start the splicing reaction. The reaction was incubated at 37° C. for 30 min and then terminated with stop dye (5 μl). The reactions were heated to 70° C. for 3 min and 5 μl was analyzed on an 8% denaturing polyacrylamide gel. The gel was dried, exposed to a phosphor screen and analyzed using a Molecular Dynamics Phosphorimager (Sunnyvale, Calif.). In vivo growth curves.

Rev-dependent ligase = assay type: biochemical
Experimental: Ligation assays. Ligation assays were performed as described hereinabove.

C600ThyA::Kan^R cells = system: C600ThyA::Kan^R cells
Experimental: In vivo growth curves. Cells grown overnight in LB were diluted 1:100 in MM containing either theophylline, caffeine, 3-methylxanthine or no effector, and analyzed on a Microbiology Workstation Bioscreen C (Labsystems, Inc., Franklin, Mass.).

[1] = system: Cyt 18-dependent population; assay: Specificity of activation of Cyt18-dependent ribozymes by proteins; assay type: biochemical
Experimental: (§1) Protein inactivation. Standard ligation assays were performed as described above, but in the presence of protein samples that had been pre-treated as follows. Cyt18 protein was denatured by heating for 10 min at 70° C. or by the addition of 6% SDS (0.7% SDS in ligation reaction). Lysozyme was heated 10 min at 100° C. or incubated 10 min at room temperature in the presence of 2 mM DTT (0.3 mM DTT final reaction) without inactivating the protein. The protein was successfully inactivated by heating for […] at 70° C. in the presence of 2 mM DTT. Ligation reactions were performed with 1.3 μM protein in 15 μl reactions incubated 5 min at 25° C.

lysozyme [2] = biological target: T1, lysozyme (Gallus gallus, UniProt P00698); assay: Competition assay, competitor RNA against lysozyme activation of lys11-2; assay type: biochemical, hen; conditions: 3 μM competitor RNA, 2 μM lysozyme
Experimental: Competition assays. Ligation assays were performed as described above, using 10 pmol of [^32P]-body-labeled ribozyme (cyt7-2 or lys11-2; […]) and 20 pmol effector oligonucleotide (2 μM). The denatured and annealed RNA mixture was combined with ligation buffer, 20 pmol protein (Cyt18, lysozyme, or water in the case of (−) protein samples; 2 μM), and 30 pmol of denatured and annealed competitor RNA (3 μM). Competitor RNAs are as follows:
Where N=(A, G, C, U), and tRNA (from Yeast; Gibco BRL, Gaithersburg, Md.). […] Cyt18 reactions were incubated 5 min at 25° C. and lysozyme reactions were incubated 10 min. Reactions were terminated by the addition of 45 μl of SDS/urea stop mix (75 mM EDTA, 80% formamide, saturated urea, saturated SDS, 0.05% bromophenol blue, 0.05% xylene cyanol) and analyzed on 8% polyacrylamide gels containing 0.1% SDS as above.

lysozyme [3] = biological target: T1, lysozyme; assay: Filter binding assay with lysozyme; set-up: species or system hen; conditions: read-out: Kd of anti-lysozyme aptamer
Experimental: Binding assays. Binding assays were performed in triplicate by combining I pmol of [^32P]-body-labeled RNA, 20 pmol 18.90a, and varying amounts of target protein (1 pmol to 5 nmol) in 50 μl of ligation buffer. After incubation at room temperature for 30 min, the mixture was drawn under vacuum through a series of nitrocellulose and nylon filters and washed with 150 μl of ligation buffer. The ratio of protein-bound RNA versus free RNA was determined by analyzing the counts retained on the nitrocellulose filter versus the counts on the nylon filter.

[4] = system: lysozyme-dependent clones; assay: Specificity of activation of lysozyme-dependent ribozymes by proteins; assay type: biochemical; conditions: lysozyme both reduced and denatured
Experimental: as §1

## Cn1c(=O)c2[nH]c(=O)[nH]c2n(C)c1=O [1,3-dimethyl urilic acid]
3MeX2P6
  responsiveness of 3MeX2P6 variants to effector: nor were they responsive

## Cn1c(=O)[nH]c2nc[nH]c2c1=O [1-methylxanthine]
3MeX2P6
  responsiveness of 3MeX2P6 variants to effector: nor were they responsive

## Cn1c(=O)[nH]c(=O)c2[nH]cnc21 [3-methylxanthine]
3MeX2P6
  responsiveness of 3MeX2P6 variants to effector: responsive

## Cn1cnc2[nH]c(=O)[nH]c(=O)c21 [7-methylxanthine]
3MeX2P6
  responsiveness of 3MeX2P6 variants to effector: nor were they responsive

## N=C(N)NCCC[C@H](N)C(=O)O [arginine]
Rev-dependent ligase
  activation of the Rev-dependent ligase: Activation was observed only with HIV Tat peptide

## Cn1c(=O)c2c(ncn2C)n(C)c1=O [caffeine]
3MeX2P6
  responsiveness of 3MeX2P6 variants to effector: nor were they responsive
C600ThyA::Kan^R cells
  activation of growth of cells with td gene divided by Th2P6 by effector: not activated

## O=c1[nH]cnc2nc[nH]c12 [hypoxanthine]
3MeX2P6
  responsiveness of 3MeX2P6 variants to effector: nor were they responsive

## Cn1cnc2c1c(=O)[nH]c(=O)n2C [theobromine]
3MeX2P6
  responsiveness of 3MeX2P6 variants to effector: nor were they responsive

## Cn1c(=O)c2[nH]cnc2n(C)c1=O [theophylline]
3MeX2P6
  responsiveness of 3MeX2P6 variants to effector: no longer responsive
C600ThyA::Kan^R cells; E. coli
  concentration causing a decrease in growth of cells containing the parental td intron (toxic to cells): greater than 0.5 mM
  concentration that progressively decreases growth of cells with theophylline-dependent introns: above 2 mM

## O=c1[nH]c(=O)c2[nH]cnc2[nH]1 [xanthine]
3MeX2P6
  responsiveness of 3MeX2P6 variants to effector: nor were they responsive

## E. coli tryptophanyl tRNA synthetase: non-cognate protein
[1]
  activation of Cyt18-dependent ribozyme by non-cognate protein: No activation

## MS2 coat protein: non-cognate protein
[1]
  activation of Cyt18-dependent ribozyme by non-cognate protein: No activation

## cl: high affinity anti-lysozyme aptamer, SEQ ID NO:13 (GCGACTGGACATCACGAG; chemistry not given here)
Lysozyme [2]
  reduction of lysozyme activation of lys11-2 by competitor RNA: reduced activation to background levels
Lysozyme [3]
  Kd: 31 nM

## lysozyme: hen egg white lysozyme
[4]
  activation of catalysis by inactivated lysozyme: unable to activate
[1]
  activation of Cyt18-dependent ribozyme by non-cognate protein: No activation
